Where two headings read alike, the source gives them in different places.
What was measured:
[1] = system: low-threshold calcium channel in central neurons; conditions: Tang C-M., et al., Science, 240:213; cited from earlier work
[2] = system: low-threshold calcium channel; test: Low-threshold calcium channel isolated on amiloride gel, lipid bilayer; format: biochemical, Guinea pig; conditions: 250micromolar
Description: Guinea pig cerebellar material was processed as in Example 7. It was then purified according to the method of Example 8 except that the amiloride gel chromatography was performed after the factor-coupled gel chromatography. (The latter chromatographic purification was thus used to remove the high-threshold channel recognized by the active factor of the present invention.)
The low-threshold calcium channel was eluted from the amiloride gel using 400 mM sucrose, 10 mM HEPES (pH 7.4) containing 1 mM amiloride.
The channel activity of the thus-purified gel was tested as described above by the lipid bilayer technique. The channel has an estimated conductance of about 8 pS, is characterized by rapid openings (of the order of 1-100 msec at […]), is rapidly inactivated (within about 1 sec at the same depolarization), and was blocked by cadmium (250micromolar).

[3] = system: calcium channel reconstituted in a lipid bilayer; format: biochemical, guinea pig; conditions: for concentration at which single channels were blocked: cerebellar-origin channel, 80 mM BaCl2 cis / 120 mM CsCl trans; for calcium channel activity of the reconstituted channel: concentration not given
[4] = system: calcium channel in vesicles; test: Calcium uptake into quin-2-loaded vesicles (fluorescence)

Question: With `N=C(N)NC(=O)c1nc(Cl)c(N)nc1N` [amiloride, 3,5-diamino-N-(aminoiminomethyl)-6-chloropyrazine carboxamide] as the molecule, how does the “block of low-threshold calcium channel” value [1] read?
Answer: The value was “specifically blocks”.

Question: With `[Cd]` [cadmium] as the molecule, how does the low-threshold channel activity [2] read?
Answer: The low-threshold channel activity was “blocked”.

Question: What about the “concentration at which single channels were blocked” value [3] of the same molecule?
Answer: Its value is “less than 100 micromolar”.

Question: And the “calcium channel activity of the reconstituted channel” value [3]?
Answer: The value was “blocked”.

Question: What about the “calcium channel activity of the reconstituted channel” value ([3]; listed as Cd^++) of the same molecule?
Answer: The value was “completely blocked”.

Question: And the “uptake of calcium into the vesicles” value ([4]; 50 micromolar, calcium 2 mM additions)?
Answer: The value was “blocked”.

Question: And the “intravesicular fluorescence over time” value ([4]; 100 micromolar before addition of 2 mM CaCl2)?
Answer: The value was “did not increase with time and remained at the baseline”.

Question: What does the source list for `[Co]` [cobalt]?
Answer: Calcium Conductance ([3]; 100 mM CaCl2 pH 7.5 and 20 M × 10^-6 Co^++ outside only, voltage range ±200): none; concentration at which single channels were blocked [3]: less than 100 micromolar; calcium channel activity of the reconstituted channel [3]: blocked; calcium channel activity of the reconstituted channel ([3]; listed as Co^++): completely blocked

Question: With `COC(=O)C1=C(C)NC(C)=C(C(=O)OC)C1c1ccccc1[N+](=O)[O-]` [nifedipine] as the molecule, how does the “effect on the isolated calcium channels” value ([3]; 5×10^-6 M) read?
Answer: Its value is “neither blocker had an effect”.

From patent US4950739A (priority 1988, dated 1990)
